Assay results reported in ChEMBL document CHEMBL3297698, “Novel synthetic route for antimalarial benzo[a]phenoxazine derivative SSJ-183 and two active metabolites” (Bioorg Med Chem, 2014).

Tests used:
Plasmodium falciparum [1] = test: Antimalarial activity against Plasmodium falciparum K1 assessed as inhibition of [3H]hypoxanthine incorporation preincubated for 48 hrs measured 24 hrs post [3H]hypoxanthine addition by liquid scintillation counting; assay type: functional, organism-based
Plasmodium falciparum [2] = test: Antimalarial activity against Plasmodium falciparum […] assessed as inhibition of [3H]hypoxanthine incorporation preincubated for 48 hrs measured 24 hrs post [3H]hypoxanthine addition by liquid scintillation counting; assay type: functional, organism-based

Row | IC50 (Plasmodium falciparum [1]) | IC50 (Plasmodium falciparum [2]) | SMILES
1 | 5.2 nM | 4.2 nM | CN(C)c1ccc2nc3ccc(=[N+](C)C)cc-3sc2c1 [METHYLENE BLUE CATION]
2 | 6.5 nM | 11 nM | CCN(CC)c1ccc2nc3c4ccccc4/c(=N\c4ccncc4)cc-3oc2c1
3 | 17.1 nM | 24 nM | Nc1ccc2nc3c4ccccc4/c(=N/c4ccncc4)cc-3oc2c1
4 | 5 nM | 7.5 nM | CCNc1ccc2nc3c4ccccc4/c(=N/c4ccncc4)cc-3oc2c1
